Source: patent US10131652B2, “Pyrimidinyloxy benzene derivatives as herbicides” (E. I. DU PONT DE NEMOURS AND COMPANY, priority 2014, dated 2018)
Like-named read-outs stand apart in the source and are kept apart here.

How the values were obtained:
Assay in all cases: Test F pre-/postemergence plant response
Assay type in all cases: in vivo
[1] = system: Brazilian crabgrass (Digitaria horizontalis); details: Digitaria horizontalis, scale 0 to 100, read-out: Plant response rating, Crabgrass, Brazil
Outline: (§1)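 Herbicidal effect judged by eye against controls, scored 0–100 (complete control = 100). Applications: pre-emergence onto seeded silt loam, post-emergence onto 2–18 cm seedlings; greenhouse, 14–21 days.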

[2] = system: arrowleaf sida (Sida rhombifolia); details: Sida rhombifolia, scale 0 to 100, read-out: Plant response rating, Arrowleaf Sida
Outline: as §1

corn (Zea mays) = details: Zea mays, scale 0 to 100
Outline: as §1

[3] = system: fall panicum (Panicum dichotomiflorum); details: Panicum dichotomiflorum, scale 0 to 100, read-out: Plant response rating, Panicum, Fall
Outline: as §1

[4] = system: goosegrass (Eleusine indica); details: Eleusine indica, pre-emergence, scale 0 to 100, read-out: Plant response rating, Goosegrass
Outline: as §1

[5] = system: hairy beggarticks (Bidens pilosa); details: Bidens pilosa, scale 0 to 100, read-out: Plant response rating, Beggarticks
Outline: as §1

[6] = system: nightshade (eastern black nightshade, Solanum ptycanthum); details: Solanum, pre-emergence, scale 0 to 100, read-out: Plant response rating, Nightshade
Outline: as §1

[7] = system: palmer pigweed (Amaranthus palmeri); details: Amaranthus palmeri, scale 0 to 100, read-out: Plant response rating, Pigweed, Palmer
Outline: as §1

[8] = system: sandbur (southern sandbur, Cenchrus echinatus); details: Cenchrus echinatus, scale 0 to 100, read-out: Plant response rating, Sandbur
Outline: as §1

[9] = system: velvetleaf (Abutilon theophrasti); details: Abutilon theophrasti, pre-emergence, scale 0 to 100, read-out: Plant response rating, Velvetleaf
Outline: as §1

[10] = post-emergence, 16 g ai/ha Postemergence
[11] = post-emergence, 31 g ai/ha Postemergence
[12] = post-emergence, 62 g ai/ha Postemergence
[13] = post-emergence, 125 g ai/ha Postemergence
[14] = pre-emergence, 16 g ai/ha Preemergence
[15] = pre-emergence, 31 g ai/ha Preemergence
[16] = pre-emergence, 62 g ai/ha Preemergence
[17] = pre-emergence, 125 g ai/ha Preemergence

## Fc1cccc(Oc2ncc(Cl)cn2)c1-c1cc(C(F)F)no1 [Compound 144, 5-chloro-2-[2-[3-(difluoromethyl)-5-isoxazolyl]-3-fluorophenoxy]pyrimidine]
[1]; [10]
  pest or weed control at 16 g/ha: 40%
[1]; [11]
  pest or weed control at 31 g/ha: 50%
[1]; [12]
  pest or weed control at 62 g/ha: 40%
[1]; [13]
  pest or weed control at 125 g/ha: 55%
[1]; [14]
  pest or weed control at 16 g/ha: 75%
[1]; [15]
  pest or weed control at 31 g/ha: 95%
[1]; [16]
  pest or weed control at 62 g/ha: 98%
[1]; [17]
  pest or weed control at 125 g/ha: 100%
[2]; [10]
  pest or weed control at 16 g/ha: 100%
[2]; [11]
  pest or weed control at 31 g/ha: 100%
[2]; [12]
  pest or weed control at 62 g/ha: 100%
[2]; [13]
  pest or weed control at 125 g/ha: 100%
[2]; [14]
  pest or weed control at 16 g/ha: 95%
[2]; [15]
  pest or weed control at 31 g/ha: 100%
[2]; [16]
  pest or weed control at 62 g/ha: 100%
[2]; [17]
  pest or weed control at 125 g/ha: 100%
Corn (Zea mays); [10]
  Corn plant response rating (crop injury, 0 = no effect, 100 = complete kill) at 16 g/ha: 10%
Corn (Zea mays); [11]
  Corn plant response rating (crop injury, 0 = no effect, 100 = complete kill) at 31 g/ha: 5%
Corn (Zea mays); [12]
  Corn plant response rating (crop injury, 0 = no effect, 100 = complete kill) at 62 g/ha: 10%
Corn (Zea mays); [13]
  Corn plant response rating (crop injury, 0 = no effect, 100 = complete kill) at 125 g/ha: 10%
Corn (Zea mays); [14]
  Corn plant response rating (crop injury, 0 = no effect, 100 = complete kill) at 16 g/ha: 0%
Corn (Zea mays); [15]
  Corn plant response rating (crop injury, 0 = no effect, 100 = complete kill) at 31 g/ha: 0%
Corn (Zea mays); [16]
  Corn plant response rating (crop injury, 0 = no effect, 100 = complete kill) at 62 g/ha: 40%
Corn (Zea mays); [17]
  Corn plant response rating (crop injury, 0 = no effect, 100 = complete kill) at 125 g/ha: 35%
[3]; [10]
  pest or weed control at 16 g/ha: 25%
[3]; [11]
  pest or weed control at 31 g/ha: 30%
[3]; [12]
  pest or weed control at 62 g/ha: 35%
[3]; [13]
  pest or weed control at 125 g/ha: 60%
[3]; [14]
  pest or weed control at 16 g/ha: 95%
[3]; [15]
  pest or weed control at 31 g/ha: 100%
[3]; [17]
  pest or weed control at 125 g/ha: 100%
[3]; pre-emergence, Preemergence
  pest or weed control at 62 g/ha: 100%
[4]; 16 g ai/ha Preemergence
  pest or weed control at 16 g/ha: 75%
[4]; 31 g ai/ha Preemergence
  pest or weed control at 31 g/ha: 60%
[4]; 125 g ai/ha Preemergence
  pest or weed control at 125 g/ha: 100%
[4]; Preemergence
  pest or weed control at 62 g/ha: 95%
[5]; [10]
  pest or weed control at 16 g/ha: 70%
[5]; [11]
  pest or weed control at 31 g/ha: 60%
[5]; [12]
  pest or weed control at 62 g/ha: 70%
[5]; [13]
  pest or weed control at 125 g/ha: 75%
[5]; [14]
  pest or weed control at 16 g/ha: 0%
[5]; [15]
  pest or weed control at 31 g/ha: 0%
[5]; [16]
  pest or weed control at 62 g/ha: 0%
[5]; [17]
  pest or weed control at 125 g/ha: 0%
[6]; 16 g ai/ha Preemergence
  pest or weed control at 16 g/ha: 98%
[6]; 31 g ai/ha Preemergence
  pest or weed control at 31 g/ha: 98%
[6]; 125 g ai/ha Preemergence
  pest or weed control at 125 g/ha: 100%
[6]; Preemergence
  pest or weed control at 62 g/ha: 100%
[7]; [10]
  pest or weed control at 16 g/ha: 90%
[7]; [11]
  pest or weed control at 31 g/ha: 100%
[7]; [12]
  pest or weed control at 62 g/ha: 100%
[7]; [13]
  pest or weed control at 125 g/ha: 100%
[7]; [14]
  pest or weed control at 16 g/ha: 100%
[7]; [15]
  pest or weed control at 31 g/ha: 100%
[7]; [17]
  pest or weed control at 125 g/ha: 100%
[7]; pre-emergence, Preemergence
  pest or weed control at 62 g/ha: 100%
[8]; [10]
  pest or weed control at 16 g/ha: 10%
[8]; [11]
  pest or weed control at 31 g/ha: 15%
[8]; [12]
  pest or weed control at 62 g/ha: 20%
[8]; [13]
  pest or weed control at 125 g/ha: 20%
[8]; [14]
  pest or weed control at 16 g/ha: 0%
[8]; [15]
  pest or weed control at 31 g/ha: 10%
[8]; [17]
  pest or weed control at 125 g/ha: 95%
[8]; pre-emergence, Preemergence
  pest or weed control at 62 g/ha: 50%
[9]; 16 g ai/ha Preemergence
  pest or weed control at 16 g/ha: 80%
[9]; 31 g ai/ha Preemergence
  pest or weed control at 31 g/ha: 100%
[9]; 125 g ai/ha Preemergence
  pest or weed control at 125 g/ha: 100%
[9]; Preemergence
  pest or weed control at 62 g/ha: 100%
